According to patent US8609653B2, “Azaindole compounds and methods for treating HIV” (priority 2011, dated 2013):

What follows are compounds tested on HIV (assay: MT4 assay: antiviral HIV activity in MT-4 cells). Details: Human immunodeficiency virus 1, MT4, 96 h, read-out: HIV MT4 Assay IC50 (μM), HTLV-1 transformed cell line MT-4; read-out 96 hours later with cell titer glo; 10 point dose response.
Format: cell-based
Summary of the method: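 Compounds tested in HTLV-1-transformed MT-4 cells for protection from HIV, with cytotoxicity run in parallel under the same conditions; CellTiter-Glo luminescence read 96 h later. IC50 from 10-point, 3–4-fold serial dilutions spanning >1000-fold, % inhibition relative to no-compound control, fitted by four-parameter logistic.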
`Cc1ccc(F)c(Cn2ccc3c(-c4ccc5c(c4)CCCO5)c(C(OC(C)(C)C)C(=O)O)c(C)nc32)c1Cl` (centres unmarked) [Example 53, 2-(tert-butoxy)-2-(1-(2-chloro-6-fluoro-3-methylbenzyl)-4-(chroman-6-yl)-6-methyl-1H-pyrrolo[2,3-b]pyridin-5-yl)acetic acid] showed an IC50 of 0.055 µM.
`Cc1ccc(F)cc1Cn1ccc2c(-c3ccc4c(c3)CCCO4)c(C(OC(C)(C)C)C(=O)O)c(C)nc21` (centres unmarked) [Example 54, 2-(tert-butoxy)-2-(4-(chroman-6-yl)-1-(5-fluoro-2-methylbenzyl)-6-methyl-1H-pyrrolo[2,3-b]pyridin-5-yl)acetic acid] showed an IC50 of 0.045 µM.
With `COc1cccc(F)c1Cn1ccc2c(-c3ccc4c(c3)CCCO4)c(C(OC(C)(C)C)C(=O)O)c(C)nc21` (centres unmarked) [Example 55, 2-(tert-butoxy)-2-(4-(chroman-6-yl)-1-(2-fluoro-6-methoxybenzyl)-6-methyl-1H-pyrrolo[2,3-b]pyridin-5-yl)acetic acid] the IC50 was 0.021 µM.
Compound `Cc1nc2c(ccn2Cc2c(F)cccc2Cl)c(-c2ccc3c(c2)CCCO3)c1C(OC(C)(C)C)C(=O)O` (centres unmarked) [Example 56, 2-(tert-butoxy)-2-(1-(2-chloro-6-fluorobenzyl)-4-(chroman-6-yl)-6-methyl-1H-pyrrolo[2,3-b]pyridin-5-yl)acetic acid] has an IC50 of 0.025 µM.
`Cc1nc2c(ccn2Cc2cccc(F)c2F)c(-c2ccc3c(c2)CCCO3)c1[C@H](OC(C)(C)C)C(=O)O` [Example 57, (S)-2-(tert-butoxy)-2-(4-(chroman-6-yl)-1-(2,3-difluorobenzyl)-6-methyl-1H-pyrrolo[2,3-b]pyridin-5-yl)acetic acid] showed an IC50 of 0.027 µM.
`Cc1nc2c(ccn2Cc2cc(F)ccc2F)c(-c2ccc3c(c2)CCCO3)c1[C@H](OC(C)(C)C)C(=O)O` [Example 58, (S)-2-(tert-butoxy)-2-(4-(chroman-6-yl)-1-(2,5-difluorobenzyl)-6-methyl-1H-pyrrolo[2,3-b]pyridin-5-yl)acetic acid] showed an IC50 of 0.08 µM.
In the case of `Cc1nc2c(ccn2Cc2ccc(C(F)(F)F)cc2F)c(-c2ccc3c(c2)CCCO3)c1C(OC(C)(C)C)C(=O)O` (centres unmarked) [Example 59, 2-(tert-butoxy)-2-(4-(chroman-6-yl)-1-(2-fluoro-4-(trifluoromethyl)benzyl)-6-methyl-1H-pyrrolo[2,3-b]pyridin-5-yl)acetic acid], the IC50 is reported as 0.38 µM.
`Cc1nc2c(ccn2Cc2cccc(OC(F)(F)F)c2)c(-c2ccc3c(c2)CCCO3)c1C(OC(C)(C)C)C(=O)O` (centres unmarked) [Example 60, 2-(tert-butoxy)-2-(4-(chroman-6-yl)-6-methyl-1-(3-(trifluoromethoxy)benzyl)-1H-pyrrolo[2,3-b]pyridin-5-yl)acetic acid] showed an IC50 of 0.181 µM.
`COc1cccc(Cn2ccc3c(-c4ccc5c(c4)CCCO5)c(C(OC(C)(C)C)C(=O)O)c(C)nc32)c1` (centres unmarked) [Example 61, 2-(tert-butoxy)-2-(4-(chroman-6-yl)-1-(3-methoxybenzyl)-6-methyl-1H-pyrrolo[2,3-b]pyridin-5-yl)acetic acid] was tested, and the IC50 was 0.41 µM.
Work on `Cc1nc2c(ccn2Cc2ccc(-n3cncn3)cc2)c(-c2ccc3c(c2)CCCO3)c1C(OC(C)(C)C)C(=O)O` (centres unmarked) [Example 62, 2-(1-(4-(1H-1,2,4-triazol-1-yl)benzyl)-4-(chroman-6-yl)-6-methyl-1H-pyrrolo[2,3-b]pyridin-5-yl)-2-(tert-butoxy)acetic acid] yielded an IC50 of 0.98 µM.
`Cc1ccc(-c2c(C(OC(C)(C)C)C(=O)O)c(C)nc3c2ccn3Cc2ccc(C(F)(F)F)cc2)cc1` (centres unmarked) [Example 63, 2-(tert-butoxy)-2-(6-methyl-4-(p-tolyl)-1-(4-(trifluoromethyl)benzyl)-1H-pyrrolo[2,3-b]pyridin-5-yl)acetic acid] was tested, and the IC50 was 3.96 µM.
`Cc1nc2c(ccn2Cc2ccc(OC(F)(F)F)cc2)c(-c2ccc3c(c2)CCCO3)c1C(OC(C)(C)C)C(=O)O` (centres unmarked) [Example 64, 2-(tert-butoxy)-2-(4-(chroman-6-yl)-6-methyl-1-(4-(trifluoromethoxy)benzyl)-1H-pyrrolo[2,3-b]pyridin-5-yl)acetic acid] showed an IC50 of 0.68 µM.
`Cc1nc2c(ccn2CC2CCCCC2)c(-c2ccc3c(c2)CCCO3)c1C(OC(C)(C)C)C(=O)O` (centres unmarked) [Example 65, 2-(tert-butoxy)-2-(4-(chroman-6-yl)-1-(cyclohexylmethyl)-6-methyl-1H-pyrrolo[2,3-b]pyridin-5-yl)acetic acid] showed an IC50 of 0.59 µM.
With `Cc1nc2c(ccn2CC2CCN(C(=O)OC(C)(C)C)CC2)c(-c2ccc3c(c2)CCCO3)c1C(OC(C)(C)C)C(=O)O` (centres unmarked) [Example 66, 2-(tert-butoxy)-2-(1-((1-(tert-butoxycarbonyl)piperidin-4-yl)methyl)-4-(chroman-6-yl)-6-methyl-1H-pyrrolo[2,3-b]pyridin-5-yl)acetic acid] the IC50 was 7.34 µM.
`Cc1nc2c(ccn2CC2CCOCC2)c(-c2ccc3c(c2)CCCO3)c1C(OC(C)(C)C)C(=O)O` (centres unmarked) [Example 67, 2-(tert-butoxy)-2-(4-(chroman-6-yl)-6-methyl-1-((tetrahydro-2H-pyran-4-yl)methyl)-1H-pyrrolo[2,3-b]pyridin-5-yl)acetic acid] showed an IC50 of 0.59 µM.
`Cc1nc2c(ccn2CC2CCC2)c(-c2ccc3c(c2)CCCO3)c1C(OC(C)(C)C)C(=O)O` (centres unmarked) [Example 68, 2-(tert-butoxy)-2-(4-(chroman-6-yl)-1-(cyclobutylmethyl)-6-methyl-1H-pyrrolo[2,3-b]pyridin-5-yl)acetic acid] showed an IC50 of 0.72 µM.
For `Cc1ccc(-c2c(C(OC(C)(C)C)C(=O)O)c(C)nc3c2ccn3Cc2ccc(F)c(C(F)(F)F)c2)cc1` (centres unmarked) [Example 69, 2-(tert-butoxy)-2-(1-(4-fluoro-3-(trifluoromethyl)benzyl)-6-methyl-4-(p-tolyl)-1H-pyrrolo[2,3-b]pyridin-5-yl)acetic acid], the IC50 was 0.25 µM.
For `Cc1ccc(-c2c(C(OC(C)(C)C)C(=O)O)c(C)nc3c2ccn3Cc2ccc(F)cc2C)cc1` (centres unmarked) [Example 70, 2-(tert-butoxy)-2-(1-(4-fluoro-2-methylbenzyl)-6-methyl-4-(p-tolyl)-1H-pyrrolo[2,3-b]pyridin-5-yl)acetic acid], the IC50 was 0.04 µM.
In the case of `Cc1ccc(-c2c(C(OC(C)(C)C)C(=O)O)c(C)nc3c2ccn3C2CCCCC2)cc1` (centres unmarked) [Example 73, 2-(tert-Butoxy)-2-[1-cyclohexyl-6-methyl-4-(4-methylphenyl)-1H-pyrrolo[2,3-b]pyridin-5-yl]acetic acid], the IC50 is reported as 1.31 µM.
With `Cc1ccc(-c2c(C(OC(C)(C)C)C(=O)O)c(C)nc3c2ccn3C2CCC(C)CC2)cc1` [Example 74, 2-(tert-butoxy)-2-(6-methyl-1-((1R,4R)-4-methylcyclohexyl)-4-(p-tolyl)-1H-pyrrolo[2,3-b]pyridin-5-yl)acetic acid] the IC50 was 2.33 µM.
`COCCn1ccc2c(-c3ccc(C)cc3)c(C(OC(C)(C)C)C(=O)O)c(C)nc21` (centres unmarked) [Example 75, 2-(tert-Butoxy)-2-(1-(2-methoxyethyl)-6-methyl-4-(p-tolyl)-1H-pyrrolo[2,3-b]pyridin-5-yl)acetic acid] gave an IC50 of 4.1 µM.
`Cc1ccc(-c2c(C(OC(C)(C)C)C(=O)O)c(C)nc3c2ccn3CC(C)(C)C)cc1` (centres unmarked) [Example 76, 2-(tert-butoxy)-2-(6-methyl-1-neopentyl-4-(p-tolyl)-1H-pyrrolo[2,3-b]pyridin-5-yl)acetic acid] was tested, and the IC50 was 0.9 µM.
Work on `Cc1ccc(-c2c(C(OC(C)(C)C)C(=O)O)c(C)nc3c2ccn3Cc2ccc(Cl)cc2)cc1` (centres unmarked) [Example 77, 2-(tert-Butoxy)-2-(1-(4-chlorobenzyl)-6-methyl-4-(p-tolyl)-1H-pyrrolo[2,3-b]pyridin-5-yl)acetic acid] yielded an IC50 of 0.65 µM.
In the case of `Cc1ccc(-c2c(C(OC(C)(C)C)C(=O)O)c(C)nc3c2ccn3Cc2cc(F)cc(F)c2)cc1` (centres unmarked) [Example 78, 2-(tert-Butoxy)-2-(1-(3,5-difluorobenzyl)-6-methyl-4-(p-tolyl)-1H-pyrrolo[2,3-b]pyridin-5-yl)acetic acid], the IC50 is reported as 0.35 µM.
For `Cc1ccc(-c2c(C(OC(C)(C)C)C(=O)O)c(C)nc3c2ccn3CCOCc2ccccc2)cc1` (centres unmarked) [Example 79, 2-(1-(2-(benzyloxy)ethyl)-6-methyl-4-(p-tolyl)-1H-pyrrolo[2,3-b]pyridin-5-yl)-2-(tert-butoxy)acetic acid], the IC50 was 4.87 µM.
`Cc1ccc(-c2c(C(OC(C)(C)C)C(=O)O)c(C)nc3c2ccn3Cc2ccc3c(c2)OCO3)cc1` (centres unmarked) [Example 80, 2-(1-(Benzo[d][1,3]dioxol-5-ylmethyl)-6-methyl-4-(p-tolyl)-1H-pyrrolo[2,3-b]pyridin-5-yl)-2-(tert-butoxy)acetic acid] was tested, and the IC50 was 0.8 µM.
With `Cc1nc2c(ccn2[C@H](C)c2ccc(F)cc2)c(-c2ccc3c(c2)CCCO3)c1C(OC(C)(C)C)C(=O)O` (some centres unmarked) [Example 81] the IC50 was 0.03 µM.
Compound `Cc1nc2c(ccn2C2(c3ccc(F)cc3)CC2)c(-c2ccc3c(c2)CCCO3)c1C(OC(C)(C)C)C(=O)O` (centres unmarked) [Example 82, 2-(tert-butoxy)-2-(4-(chroman-6-yl)-1-(1-(4-fluorophenyl)cyclopropyl)-6-methyl-1H-pyrrolo[2,3-b]pyridin-5-yl)acetic acid] has an IC50 of 0.3 µM.
`Cc1nc2c(ccn2[C@@H](C)c2ccc(F)cc2)c(-c2ccc3c(c2)CCCO3)c1C(OC(C)(C)C)C(=O)O` (some centres unmarked) [Example 83] gave an IC50 of 0.123 µM.
With `Cc1nc2c(ccn2[C@@H](C)c2ccc(F)cc2)c(-c2ccc3c(c2)CCCO3)c1[C@@H](OC(C)(C)C)C(=O)O` [Example 84, (R)-2-(tert-butoxy)-2-(4-(chroman-6-yl)-1-((S)-1-(4-fluorophenyl)ethyl)-6-methyl-1H-pyrrolo[2,3-b]pyridin-5-yl)acetic acid] the IC50 was 0.124 µM.

Same assay, conditions: read-out: HIV MT4 Assay IC50; HTLV-1 transformed cell line MT-4; read-out 96 hours later with cell titer glo; 10 point dose response
`Cc1nc2c(ccn2C(C)c2ccc(F)c(F)c2)c(-c2ccc3c(c2)CCCO3)c1C(OC(C)(C)C)C(=O)O` (centres unmarked) [Example 71, 2-(tert-butoxy)-2-(4-(chroman-6-yl)-1-(1-(3,4-difluorophenyl)ethyl)-6-methyl-1H-pyrrolo[2,3-b]pyridin-5-yl)acetic acid] gave an IC50 of 0.016 µM.
Compound `Cc1nc2c(ccn2C(C)c2ccc(F)c(F)c2)c(-c2ccc3c(c2)CCCO3)c1C(OC(C)(C)C)C(=O)O` (centres unmarked) [Example 72, 2-(tert-butoxy)-2-(4-(chroman-6-yl)-1-(1-(3,4-difluorophenyl)ethyl)-6-methyl-1H-pyrrolo[2,3-b]pyridin-5-yl)acetic acid] has an IC50 of 0.19 µM.
